In patent US9688676B2, “Tyrosine kinase inhibitors” (PRINCIPIA BIOPHARMA INC., priority 2015, dated 2017) one finds IC50 data, which are given here for 22 molecules.

Molecules are shown by their SMILES.

Chain of BTK (Q06187 whole entry): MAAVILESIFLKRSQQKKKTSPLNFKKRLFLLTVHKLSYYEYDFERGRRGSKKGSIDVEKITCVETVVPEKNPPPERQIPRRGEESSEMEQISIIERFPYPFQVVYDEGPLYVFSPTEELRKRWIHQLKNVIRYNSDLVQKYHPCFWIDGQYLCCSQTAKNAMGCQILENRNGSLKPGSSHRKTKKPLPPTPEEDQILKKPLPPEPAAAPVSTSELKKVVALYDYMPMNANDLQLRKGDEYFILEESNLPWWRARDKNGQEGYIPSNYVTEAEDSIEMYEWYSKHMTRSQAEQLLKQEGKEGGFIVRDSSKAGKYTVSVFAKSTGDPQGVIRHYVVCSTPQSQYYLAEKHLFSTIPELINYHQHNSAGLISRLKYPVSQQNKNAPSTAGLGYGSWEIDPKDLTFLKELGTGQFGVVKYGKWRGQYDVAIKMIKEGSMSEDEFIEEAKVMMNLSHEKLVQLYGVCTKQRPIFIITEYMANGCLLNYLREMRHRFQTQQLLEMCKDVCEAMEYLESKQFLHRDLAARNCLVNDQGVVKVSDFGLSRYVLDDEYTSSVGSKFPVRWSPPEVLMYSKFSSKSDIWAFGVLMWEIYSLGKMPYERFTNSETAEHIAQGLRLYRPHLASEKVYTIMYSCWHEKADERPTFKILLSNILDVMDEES

The target of this assay is BTK (Homo sapiens (Human), UniProt Q06187). In words: BTK enzymatic activity assay (Caliper-based kinase assay). Format: biochemical. The following applies: human recombinant BTK 0.5 nM, ATP 16 μM, 3 h room temperature. Here is the method:
A Caliper-based kinase assay (Caliper Life Sciences, Hopkinton, Mass.) was used to measure inhibition of BTK kinase activity of a compound of the present disclosure. […] The reaction was then terminated with EDTA, final concentration 20 mM and the phosphorylated reaction product was quantified on a Caliper Desktop Profiler (Caliper LabChip 3000). […] This value is presented as the IC50.
The IC50 is the point on the concentration scale where inhibition reaches its midpoint. As to `CC1(C=C(C#N)C(=O)N2CCC[C@@H](n3c(=O)n(-c4ccc(Oc5ccccc5)cc4)c4c(N)nccc43)C2)CCOCC1` [Compound 37, (R)-2-(3-(4-amino-2-oxo-3-(4-phenoxyphenyl)-2,3-dihydro-1H-imidazo[4,5-c]pyridin-1-yl)piperidine-1-carbonyl)-3-(4-methyltetrahydro-2H-pyran-4-yl)acrylonitrile], the concentration for half-maximal inhibition (IC50) was determined as 4.3 nM.
On to `CC(C)(C=C(C#N)C(=O)N1CCC[C@@H](n2c(=O)n(-c3ccc(Oc4ccccc4F)cc3)c3c(N)nccc32)C1)N1CCN(C2COC2)CC1` [Compound 38, (R)-2-(3-(4-amino-3-(4-(2-fluorophenoxy)phenyl)-2-oxo-2,3-dihydro-1H-imidazo[4,5-c]pyridin-1-yl)piperidine-1-carbonyl)-4-methyl-4-(4-(oxetan-3-yl)piperazin-1-yl)pent-2-enenitrile], for which the half-inhibitory concentration (IC50) stood at 5.7 nM.
As for `CN(C1COC1)C(C)(C)C=C(C#N)C(=O)N1CCC[C@H]1Cn1c(=O)n(-c2ccc(Oc3ccccc3)cc2)c2c(N)nccc21` [Compound 36, (S)-2-(2-((4-amino-2-oxo-3-(4-phenoxyphenyl)-2,3-dihydro-1H-imidazo[4,5-c]pyridin-1-yl)methyl)pyrrolidine-1-carbonyl)-4-methyl-4-(methyl(oxetan-3-yl)amino)pent-2-enenitrile], the IC50 came to 15.7 nM.
Regarding `CCN1CCN(C(C)(C)C=C(C#N)C(=O)N2CCC[C@@H](n3c(=O)n(-c4ccc(Oc5ccccc5)cc4)c4c(N)nccc43)C2)CC1=O` [Compound 40, (R)-2-(3-(4-amino-2-oxo-3-(4-phenoxyphenyl)-2,3-dihydro-1H-imidazo[4,5-c]pyridin-1-yl)piperidine-1-carbonyl)-4-(4-ethyl-3-oxopiperazin-1-yl)-4-methylpent-2-enenitrile], the IC50 stood at 5.7 nM.
As for `CC(C)(C=C(C#N)C(=O)N1CCC[C@@H](n2c(=O)n(-c3ccc(Oc4ccccc4)cc3)c3c(N)nccc32)C1)N1CCNCC1` [Compound 47, (R)-2-(3-(4-amino-2-oxo-3-(4-phenoxyphenyl)-2,3-dihydro-1H-imidazo[4,5-c]pyridin-1-yl)piperidine-1-carbonyl)-4-methyl-4-(piperazin-1-yl)pent-2-enenitrile], the IC50 turned out to be 3.1 nM.
For `COC[C@H]1CCCN1C(C)(C)C=C(C#N)C(=O)N1CCC[C@@H](n2c(=O)n(-c3ccc(Oc4ccccc4)cc3)c3c(N)nccc32)C1` [Compound 62, 2-((R)-3-(4-amino-2-oxo-3-(4-phenoxyphenyl)-2,3-dihydro-1H-imidazo[4,5-c]pyridin-1-yl)piperidine-1-carbonyl)-4-((R)-2-(methoxymethyl)pyrrolidin-1-yl)-4-methylpent-2-enenitrile], the 50% inhibitory concentration (IC50) is 5.9 nM.
In the case of `CO[C@@H]1CCN(C(C)(C)C=C(C#N)C(=O)N2CCC[C@@H](n3c(=O)n(-c4ccc(Oc5ccccc5)cc4)c4c(N)nccc43)C2)C1` [Compound 60, 2-((R)-3-(4-amino-2-oxo-3-(4-phenoxyphenyl)-2,3-dihydro-1H-imidazo[4,5-c]pyridin-1-yl)piperidine-1-carbonyl)-4-((R)-3-methoxypyrrolidin-1-yl)-4-methylpent-2-enenitrile], the IC50 was found to be 2.4 nM.
Regarding `N#CC(=CC1(c2ccccc2)CC1)C(=O)N1CCC[C@@H](n2c(=O)n(-c3ccc(Oc4ccccc4)cc3)c3c(N)nccc32)C1` [Compound 46, (R)-2-(3-(4-amino-2-oxo-3-(4-phenoxyphenyl)-2,3-dihydro-1H-imidazo[4,5-c]pyridin-1-yl)piperidine-1-carbonyl)-3-(1-phenylcyclopropyl)acrylonitrile], the half-inhibitory concentration (IC50) was found to be 13.1 nM.
With `Cc1cc(-n2c(=O)n([C@@H]3CCCN(C(=O)C(C#N)=CC(C)(C)N4CCN(C5COC5)CC4)C3)c3ccnc(N)c32)ccc1Oc1ccccc1` [Compound 28, (R)-2-(3-(4-amino-3-(3-methyl-4-phenoxyphenyl)-2-oxo-2,3-dihydro-1H-imidazo[4,5-c]pyridin-1-yl)piperidine-1-carbonyl)-4-methyl-4-(4-(oxetan-3-yl)piperazin-1-yl)pent-2-enenitrile], the IC50 is 4.8 nM.
Under `CC(C)(C=C(C#N)C(=O)N1CCC[C@@H](n2c(=O)n(-c3ccc(Oc4ccccc4)cc3)c3c(N)nccc32)C1)N1[C@@H]2CC[C@H]1COC2` [Compound 45, 2-((R)-3-(4-amino-2-oxo-3-(4-phenoxyphenyl)-2,3-dihydro-1H-imidazo[4,5-c]pyridin-1-yl)piperidine-1-carbonyl)-4-((1R,5S)-3-oxa-8-azabicyclo[3.2.1]octan-8-yl)-4-methylpent-2-enenitrile] stands 25.1 nM; under `COCC1(C=C(C#N)C(=O)N2CCC[C@@H](n3c(=O)n(-c4ccc(Oc5ccccc5)cc4)c4c(N)nccc43)C2)CCOCC1` [Compound 66, (R)-2-(3-(4-amino-2-oxo-3-(4-phenoxyphenyl)-2,3-dihydro-1H-imidazo[4,5-c]pyridin-1-yl)piperidine-1-carbonyl)-3-(4-(methoxymethyl)tetrahydro-2H-pyran-4-yl)acrylonitrile], 2 nM.
Under `CN1CCN(C(C)(C)C=C(C#N)C(=O)N2CCC[C@H]2Cn2c(=O)n(-c3ccc(Oc4ccccc4)cc3)c3c(N)nccc32)CC1=O` [Compound 35, (S)-2-(2-((4-amino-2-oxo-3-(4-phenoxyphenyl)-2,3-dihydro-1H-imidazo[4,5-c]pyridin-1-yl)methyl)pyrrolidine-1-carbonyl)-4-methyl-4-(4-methyl-3-oxopiperazin-1-yl)pent-2-enenitrile] stands 26.2 nM; under `CN1CCN(C(C)(C)C=C(C#N)C(=O)N2CCC[C@H]2Cn2c(=O)n(-c3ccc(Oc4ccccc4)cc3)c3c(N)nccc32)CC1` [Compound 34, (S)-2-(2-((4-amino-2-oxo-3-(4-phenoxyphenyl)-2,3-dihydro-1H-imidazo[4,5-c]pyridin-1-yl)methyl)pyrrolidine-1-carbonyl)-4-methyl-4-(4-methylpiperazin-1-yl)pent-2-enenitrile], 23.1 nM; under `CC(C)(C=C(C#N)C(=O)N1CCC[C@@H](n2c(=O)n(-c3ccc(Oc4cccc(F)c4F)cc3)c3c(N)nccc32)C1)N1CCN(C2COC2)CC1` [Compound 25, (R)-2-(3-(4-amino-3-(4-(2,3-difluorophenoxy)phenyl)-2-oxo-2,3-dihydro-1H-imidazo[4,5-c]pyridin-1-yl)piperidine-1-carbonyl)-4-methyl-4-(4-(oxetan-3-yl)piperazin-1-yl)pent-2-enenitrile], 5.4 nM.
With `N#CC(=CC1CC1)C(=O)N1CCC[C@@H](n2c(=O)n(-c3ccc(Oc4ccccc4)cc3)c3c(N)nccc32)C1` [Compound 41, (R)-2-(3-(4-amino-2-oxo-3-(4-phenoxyphenyl)-2,3-dihydro-1H-imidazo[4,5-c]pyridin-1-yl)piperidine-1-carbonyl)-3-cyclopropylacrylonitrile], the IC50 came to 3.1 nM.
Regarding `N#CC(=CC1CCSCC1)C(=O)N1CCC[C@@H](n2c(=O)n(-c3ccc(Oc4ccccc4)cc3)c3c(N)nccc32)C1` [Compound 20, (R)-2-(3-(4-amino-2-oxo-3-(4-phenoxyphenyl)-2,3-dihydro-1H-imidazo[4,5-c]pyridin-1-yl)piperidine-1-carbonyl)-3-(tetrahydro-2H-thiopyran-4-yl)acrylonitrile], the half-inhibitory concentration (IC50) worked out at 14.5 nM.
Turning to `C[C@@H]1CN(C(C)(C)C=C(C#N)C(=O)N2CCC[C@@H](n3c(=O)n(-c4ccc(Oc5ccccc5)cc4)c4c(N)nccc43)C2)C[C@H](C)N1` [Compound 19, 2-((R)-3-(4-amino-2-oxo-3-(4-phenoxyphenyl)-2,3-dihydro-1H-imidazo[4,5-c]pyridin-1-yl)piperidine-1-carbonyl)-4-((3R,5S)-3,5-dimethylpiperazin-1-yl)-4-methylpent-2-enenitrile], the 50% inhibitory concentration (IC50) is 7.8 nM.
Consider `CC(C)(C)OC(=O)N1CCN(C(C)(C)C=C(C#N)C(=O)N2CCC[C@@H](n3c(=O)n(-c4ccc(Oc5ccccc5)cc4)c4c(N)nccc43)C2)CC1` [Compound 43, (R)-tert-butyl 4-(5-(3-(4-amino-2-oxo-3-(4-phenoxyphenyl)-2,3-dihydro-1H-imidazo[4,5-c]pyridin-1-yl)piperidin-1-yl)-4-cyano-2-methyl-5-oxopent-3-en-2-yl)piperazine-1-carboxylate], for which the concentration for half-maximal inhibition (IC50) came to 22.5 nM.
Under `CC1(C=C(C#N)C(=O)N2CCC[C@@H](n3c(=O)n(-c4ccc(Oc5ccccc5)cc4)c4c(N)ncnc43)C2)CCN(C2COC2)CC1` [Compound 32, (R)-2-(3-(6-amino-8-oxo-7-(4-phenoxyphenyl)-7H-purin-9(8H)-yl)piperidine-1-carbonyl)-3-(4-methyl-1-(oxetan-3-yl)piperidin-4-yl)acrylonitrile] stands 2.9 nM; under `N#CC(=CC1[C@H]2COC[C@@H]12)C(=O)N1CCC[C@@H](n2c(=O)n(-c3ccc(Oc4ccccc4)cc3)c3c(N)nccc32)C1` (stereo partly drawn) [Compound 53, 2-((R)-3-(4-amino-2-oxo-3-(4-phenoxyphenyl)-2,3-dihydro-1H-imidazo[4,5-c]pyridin-1-yl)piperidine-1-carbonyl)-3-((1R,5S)-3-oxabicyclo[3.1.0]hexan-6-yl)acrylonitrile], 4.2 nM; under `CC(C)(C=C(C#N)C(=O)N1CCC[C@@H](n2c(=O)n(-c3ccc(Oc4ccccc4)cc3)c3c(N)nccc32)C1)N1CCN2C(=O)CC[C@@H]2C1` [Compound 61, 2-((R)-3-(4-amino-2-oxo-3-(4-phenoxyphenyl)-2,3-dihydro-1H-imidazo[4,5-c]pyridin-1-yl)piperidine-1-carbonyl)-4-methyl-4-((R)-6-oxohexahydropyrrolo[1,2-a]pyrazin-2(1H)-yl)pent-2-enenitrile], 2.5 nM.
Regarding `CC(=O)N1CCN(C(C)(C)C=C(C#N)C(=O)N2CCC[C@@H](n3c(=O)n(-c4ccc(Oc5ccccc5)cc4)c4c(N)nccc43)C2)CC1` [Compound 44, (R)-4-(4-acetylpiperazin-1-yl)-2-(3-(4-amino-2-oxo-3-(4-phenoxyphenyl)-2,3-dihydro-1H-imidazo[4,5-c]pyridin-1-yl)piperidine-1-carbonyl)-4-methylpent-2-enenitrile], the IC50 came to 3.3 nM.
